Experimental data as given in patent publication US12157736B2, “Spiro-lactam NMDA modulators and methods of using same” (Tenacia Biotechnology (Hong Kong) Co., Limited, priority 2016, dated 2024).

How the values were obtained:
NMDAR2C = target: T1, NMDAR2C (Homo sapiens, UniProt Q14957); experiment: NMDAR agonist assay, [3H]MK-801 binding, NMDAR2C expressing HEK cell membranes; type: biochemical; settings: 50 μM glutamate; for EC50: read-out: NMDAR2C: log EC50 (converted)
T1 construct: expressed in transfected cells; host or cells: HEK cells (membrane extract)
Method: (§1) Assays were conducted as described by Moskal et al., “GLYX-13: a monoclonal antibody-derived peptide that acts as an N-methyl-D-aspartate receptor modulator,” Neuropharmacology, 49, 1077-87, 2005. These studies were designed to determine if the test compounds act to facilitate NMDAR activation in NMDAR2A, NMDAR2B, NMDAR2C or NMDAR2D expressing HEK cell membranes as measured by increases in [^3H]MK-801 binding.
(§2) In the assay, 300 μg of NMDAR expressing HEK cell membrane extract protein was preincubated for 15 minutes at 25° C. in the presence of saturating concentrations of glutamate (50 μM) and varying concentrations of test compound (1×10^−15M−1×10^−7M), or 1 mM glycine. Following the addition of […] of [^3H]MK-801 (22.5 Ci/mmol), reactions were again incubated for 15 minutes at 25° C. (nonequilibrium conditions). Bound and free [^3H]MK-801 were separated via rapid filtration using a Brandel apparatus.
(§3) In analyzing the data, the DPM (disintegrations per minute) of [^3H]MK-801 remaining on the filter were measured for each concentration of test compound or for 1 mM glycine. The DPM values for each concentration of a ligand (N=2) were averaged. The baseline value was determined from the best fit curve of the DPM values modeled using the GraphPad program and the log(agonist) vs. response (three parameters) algorithm was then subtracted from all points in the dataset. The % maximal [3H]MK-801 binding was then calculated relative to that of 1 mM glycine: all baseline subtracted DPM values were divided by the average value for 1 mM glycine. The EC50 and % maximal activity were then obtained from the best fit curve of the % maximal [3H]MK-801 binding data modelled using the GraphPad program and the log(agonist) vs. response (three parameters) algorithm.
(§4) The tables below summarize the results for the wild type […] NMDAR2A, NMDAR2B, NMDAR2C, and NMDAR2D, and whether the compound is not an agonist (−), is an agonist (+), or is a strong agonist (++), where column A is based on the % maximal [3H]MK-801 binding relative to 1 mM glycine (−=0; <100%=+; and >100%=++); and column B is based on log EC50 values (0=−; ≥1×10^−9 M (e.g., −8)=+; and <1×10^−9 M (e.g., −10)=++).

IV pharmacokinetics = type: in vivo, Sprague Dawley rats; settings: rat, 2 mg/kg, normal saline
Method: Sprague Dawley rats were dosed intravenously using a normal saline formulation containing 2 mg/kg of the compounds identified in the below table. The table below summarizes the results of the IV pharmacokinetics.

NMDAR2A = target: T2, NMDAR2A (Homo sapiens, UniProt Q12879); experiment: NMDAR agonist assay, [3H]MK-801 binding, NMDAR2A expressing HEK cell membranes; type: biochemical; settings: 50 μM glutamate; for EC50: read-out: NMDAR2A: log EC50 (converted)
T2 construct: expressed in transfected cells; host or cells: HEK cells (membrane extract)
Method: as §1, §2, §3, §4

NMDAR2D = target: T3, NMDAR2D (Homo sapiens, UniProt O15399); experiment: NMDAR agonist assay, [3H]MK-801 binding, NMDAR2D expressing HEK cell membranes; type: biochemical; settings: 50 μM glutamate
T3 construct: expressed in transfected cells; host or cells: HEK cells (membrane extract)
Method: as §1, §2
as §3, with “algorithm. […]” for “algorithm.”

rats [1] = experiment: Porsolt forced swim test; type: in vivo, Sprague Dawley rats
Method: A non-clinical in vivo pharmacology study (Porsolt assay) was performed to measure antidepressant-like effects. A negative control (0.5% sodium carboxymethyl cellulose in 0.9% sterile saline vehicle) and a positive control (fluoxetine) are shown for comparison against test compound. The study allowed for the evaluation of the effects of each compound on the Porsolt forced swim test as assessed by the rats' response (reduced floating time) during a 5-minute swimming test.
(§5) Male 2-3 month old Sprague Dawley rats were used (Harlan, Indianapolis, IN). Rats were housed in Lucite cages with aspen wood chip bedding, maintained on a 12:12 light:dark cycle (lights on at 5 AM), and given ad libitum access to Purina lab chow (USA) and tap water throughout the study.
The Porsolt forced swim test adapted for use in rats was performed as described by Burgdorf et al., (The long-lasting antidepressant effects of rapastinel (GLYX-13) are associated with a metaplasticity process in the medial prefrontal cortex and hippocampus. Neuroscience 308:202-211, 2015). Animals were placed in a 46 cm tall×20 cm in diameter clear glass tube filled to 30 cm with tap water (23±1° C.) for 15 min on the first day (habituation) and 5 min on the subsequent test day. Positive control fluoxetine was dosed 3 times (24 h, 5 h and 1 h) prior to testing. Animals were tested 1 h or 24 h post-dosing with the test compounds or vehicle. Animals received a 15 min habituation session 1 day before the 5 min test. Water was changed after every other animal. Animals were videotaped, and floating time as defined as the minimal amount of effort required to keep the animals head above water was scored offline by a blinded experimenter with high inter-rater reliability (Pearson's r>0.9).
Each compound tested at dose level shown. Significance vs. vehicle group for each experiment is marked. […] A compound marked “No” was not statistically significant from vehicle. Data was averaged for test compound and vehicle groups (N approximately 8 per group) and the percent reduction in floating for group treated with test compound relative to group treated with vehicle is shown.

rats [2] = experiment: Bennett model of mechanical analgesia (sciatic nerve chronic constriction injury); type: in vivo, Sprague Dawley rats; settings: 150 mg/kg PO
Method: The Bennett model of mechanical analgesia is used to assess the analgesic effects of compounds as measured by paw withdrawal threshold. Bennett G J, Xie Y K, “A peripheral mononeuropathy in rat that produces disorders of pain sensation like those seen in man,” Pain 33:87-107, 1988. […] Vehicle animals receive the surgery and then receive vehicle rather than test compound. Animals were tested 1 hr, 24 h and 1 wk post-test compound or vehicle administration.
as §5, with “used. Harlan was the supplier for all studies.” for “used (Harlan, Indianapolis, IN).”
Rats were anesthetized using inhaled isoflurane (2.5%). Sciatic nerve chronic constriction nerve injury surgery was performed as previously described (Bennett and Xie, 1988). An incision (˜1.5 cm in length) was made with a scalpel blade dorsally through skin on the right hind limb, parallel and posterior to femur. Using a small pointed hemostat, the biceps femoris and gluteus superficialis muscles were separated. Using curved blunt forceps, the common sciatic nerve was isolated and exposed. For the mechanical analgesia studies, the whole sciatic nerve was ligated. Using hemostats/forceps and chromic gut (5-0), the nerve was loosely ligated with a square knot; 3 ligatures, 1 mm apart were placed on the nerve. […] Testing occurred approximately 2 weeks post-surgery.
During testing, rats were acclimated to the surface of a suspended wire mesh grid (1 cm×1 cm, with the wire being 0.3 cm in diameter) for 15-20 min. Starting from the smallest, each Von Frey filament was pressed perpendicularly to the plantar surface of the affected (ipsilateral) hind paw until slightly bent and then held for 6 second. If an obvious hind paw withdrawal or a flinching behavior immediately after the withdrawal of the filament was not observed, the next larger filament was used in the same manner. In case of a response, a lower filament was used. This was repeated until six responses were collected.
For all studies, animals were baselined prior to study start to test for allodynia (defined as a paw withdrawal threshold under 5). A subset of animals was tested with gabapentin (150 mg/kg, PO) to ensure at least 50% analgesia. Once it was confirmed animals were ready for study initiation, animals were balanced across groups. All study investigators were blind to treatment conditions. Animals were dosed with 0.1, 1, 10, or 30 mg/kg of test compound via oral gavage (PO), control sets of animals were dosed with gabapentin (150 mg/kg, PO) or vehicle (0.5% Na-CMC in 0.9% sterile saline, PO). Testing occurred 1 h post-dosing with animals retested 24 hrs and 1 week post-dosing. The percent analgesia calculations for each animal were made using the following equation: % analgesia=[(log(x)−y)/((log(z)−y)]*100, where x=the paw withdrawal threshold for the drug-treated animal in grams, y=the average of the log(x) values for the vehicle treated group, and z=the paw withdrawal threshold for naïve animals in grams (historical value of 15 used). The results for Compound AA-2, where the percentage of analgesia is measured at 1 hour, 24 hours, and 1 week after compound administration are as follows: for 0.1 mg/kg dose: 22.3% at 1 h, 1.6% at 24 h, and 2.3% at 1 wk; for 1 mg/kg dose: 19.2% at 1 h, 10.7% at 24 h, and 11.0% at 1 wk; for 10 mg/kg dose: 38.1% at 1 h, 24.3% at 24 h, and 41.4% at 1 wk; and for 30 mg/kg dose: 24.4% at 1 h, 8.7% at 24 h, and 34.5% at 1 wk.

NMDAR2B = target: T4, NMDAR2B (Homo sapiens, UniProt Q13224); experiment: NMDAR agonist assay, [3H]MK-801 binding, NMDAR2B expressing HEK cell membranes; type: biochemical; settings: 50 μM glutamate
T4 construct: expressed in transfected cells; host or cells: HEK cells (membrane extract)
Method: as §1, §2, §3, §4

[3] = 1 h post-dose, 0.1 mg/kg, Yes = statistically significant (p<=0.05) from vehicle
[4] = 24 h post-dose, 0.1 mg/kg, Yes = statistically significant (p<=0.05) from vehicle

T3 sequence (O15399 28-1336, species assumed, other chains not shown): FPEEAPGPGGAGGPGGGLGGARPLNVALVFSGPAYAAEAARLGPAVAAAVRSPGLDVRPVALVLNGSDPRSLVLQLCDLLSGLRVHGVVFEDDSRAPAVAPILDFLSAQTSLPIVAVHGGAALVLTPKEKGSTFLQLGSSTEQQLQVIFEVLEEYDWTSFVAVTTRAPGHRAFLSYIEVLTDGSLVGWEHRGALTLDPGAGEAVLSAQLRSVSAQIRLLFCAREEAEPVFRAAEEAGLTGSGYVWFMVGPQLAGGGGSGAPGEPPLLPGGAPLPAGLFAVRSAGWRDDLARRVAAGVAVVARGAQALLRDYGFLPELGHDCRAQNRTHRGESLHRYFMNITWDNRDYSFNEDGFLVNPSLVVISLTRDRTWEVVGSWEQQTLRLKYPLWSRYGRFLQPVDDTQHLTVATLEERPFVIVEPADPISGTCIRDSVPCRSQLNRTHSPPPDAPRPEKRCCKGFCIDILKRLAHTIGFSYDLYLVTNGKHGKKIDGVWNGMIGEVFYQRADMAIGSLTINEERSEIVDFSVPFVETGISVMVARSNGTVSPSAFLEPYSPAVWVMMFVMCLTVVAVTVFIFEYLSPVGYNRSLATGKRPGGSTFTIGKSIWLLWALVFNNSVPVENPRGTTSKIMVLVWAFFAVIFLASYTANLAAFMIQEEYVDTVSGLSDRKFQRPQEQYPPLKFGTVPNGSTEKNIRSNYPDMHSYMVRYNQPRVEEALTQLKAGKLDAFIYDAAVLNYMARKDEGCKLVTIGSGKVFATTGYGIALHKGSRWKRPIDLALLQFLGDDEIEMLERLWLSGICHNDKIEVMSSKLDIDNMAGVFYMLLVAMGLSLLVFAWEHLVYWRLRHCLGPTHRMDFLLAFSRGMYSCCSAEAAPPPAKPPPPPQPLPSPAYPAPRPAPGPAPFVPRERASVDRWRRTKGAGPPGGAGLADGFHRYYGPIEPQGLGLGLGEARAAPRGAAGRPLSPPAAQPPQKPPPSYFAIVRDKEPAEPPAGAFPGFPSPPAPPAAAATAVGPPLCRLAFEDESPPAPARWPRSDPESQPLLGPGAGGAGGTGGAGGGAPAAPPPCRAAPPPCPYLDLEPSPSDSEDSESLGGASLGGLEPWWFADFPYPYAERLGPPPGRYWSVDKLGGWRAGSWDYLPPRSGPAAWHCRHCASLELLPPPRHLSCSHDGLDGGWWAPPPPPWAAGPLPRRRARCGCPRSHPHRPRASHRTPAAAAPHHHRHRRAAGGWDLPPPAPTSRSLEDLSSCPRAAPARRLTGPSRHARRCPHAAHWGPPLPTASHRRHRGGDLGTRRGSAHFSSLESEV
T1 sequence (Q14957 20-1233, species assumed, other chains not shown): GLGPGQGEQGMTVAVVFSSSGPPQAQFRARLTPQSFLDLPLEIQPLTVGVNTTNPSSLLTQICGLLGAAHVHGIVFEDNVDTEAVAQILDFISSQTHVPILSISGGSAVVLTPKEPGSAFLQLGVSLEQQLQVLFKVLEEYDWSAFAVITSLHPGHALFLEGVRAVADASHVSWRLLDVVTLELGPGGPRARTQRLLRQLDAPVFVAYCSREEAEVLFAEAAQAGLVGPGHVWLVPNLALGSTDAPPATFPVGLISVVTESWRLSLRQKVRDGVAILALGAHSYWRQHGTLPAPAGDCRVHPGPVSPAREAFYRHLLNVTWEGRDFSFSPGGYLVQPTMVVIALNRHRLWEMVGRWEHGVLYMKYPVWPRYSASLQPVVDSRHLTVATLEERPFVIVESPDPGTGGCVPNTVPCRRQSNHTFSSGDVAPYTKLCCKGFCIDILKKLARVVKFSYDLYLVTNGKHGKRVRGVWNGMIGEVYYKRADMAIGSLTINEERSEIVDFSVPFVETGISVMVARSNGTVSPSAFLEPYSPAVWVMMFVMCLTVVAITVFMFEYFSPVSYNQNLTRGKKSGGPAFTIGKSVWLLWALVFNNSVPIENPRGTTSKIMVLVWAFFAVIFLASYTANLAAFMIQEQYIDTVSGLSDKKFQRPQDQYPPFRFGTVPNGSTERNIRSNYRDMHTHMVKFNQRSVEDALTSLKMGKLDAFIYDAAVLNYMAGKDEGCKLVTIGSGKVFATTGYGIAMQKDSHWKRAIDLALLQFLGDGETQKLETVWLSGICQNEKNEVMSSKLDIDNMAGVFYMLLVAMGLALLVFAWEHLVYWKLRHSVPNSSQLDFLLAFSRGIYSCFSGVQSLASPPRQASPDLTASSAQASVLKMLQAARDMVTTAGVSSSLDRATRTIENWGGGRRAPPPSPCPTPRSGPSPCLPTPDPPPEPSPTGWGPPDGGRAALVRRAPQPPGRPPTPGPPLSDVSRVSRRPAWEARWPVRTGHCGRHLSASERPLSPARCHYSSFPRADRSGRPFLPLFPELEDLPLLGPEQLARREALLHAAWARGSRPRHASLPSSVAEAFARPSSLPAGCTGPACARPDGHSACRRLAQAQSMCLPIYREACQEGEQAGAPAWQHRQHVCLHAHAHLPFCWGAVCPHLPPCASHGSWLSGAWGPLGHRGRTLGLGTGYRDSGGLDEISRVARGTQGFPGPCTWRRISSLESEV
T2 sequence (Q12879 23-1464, species assumed, other chains not shown): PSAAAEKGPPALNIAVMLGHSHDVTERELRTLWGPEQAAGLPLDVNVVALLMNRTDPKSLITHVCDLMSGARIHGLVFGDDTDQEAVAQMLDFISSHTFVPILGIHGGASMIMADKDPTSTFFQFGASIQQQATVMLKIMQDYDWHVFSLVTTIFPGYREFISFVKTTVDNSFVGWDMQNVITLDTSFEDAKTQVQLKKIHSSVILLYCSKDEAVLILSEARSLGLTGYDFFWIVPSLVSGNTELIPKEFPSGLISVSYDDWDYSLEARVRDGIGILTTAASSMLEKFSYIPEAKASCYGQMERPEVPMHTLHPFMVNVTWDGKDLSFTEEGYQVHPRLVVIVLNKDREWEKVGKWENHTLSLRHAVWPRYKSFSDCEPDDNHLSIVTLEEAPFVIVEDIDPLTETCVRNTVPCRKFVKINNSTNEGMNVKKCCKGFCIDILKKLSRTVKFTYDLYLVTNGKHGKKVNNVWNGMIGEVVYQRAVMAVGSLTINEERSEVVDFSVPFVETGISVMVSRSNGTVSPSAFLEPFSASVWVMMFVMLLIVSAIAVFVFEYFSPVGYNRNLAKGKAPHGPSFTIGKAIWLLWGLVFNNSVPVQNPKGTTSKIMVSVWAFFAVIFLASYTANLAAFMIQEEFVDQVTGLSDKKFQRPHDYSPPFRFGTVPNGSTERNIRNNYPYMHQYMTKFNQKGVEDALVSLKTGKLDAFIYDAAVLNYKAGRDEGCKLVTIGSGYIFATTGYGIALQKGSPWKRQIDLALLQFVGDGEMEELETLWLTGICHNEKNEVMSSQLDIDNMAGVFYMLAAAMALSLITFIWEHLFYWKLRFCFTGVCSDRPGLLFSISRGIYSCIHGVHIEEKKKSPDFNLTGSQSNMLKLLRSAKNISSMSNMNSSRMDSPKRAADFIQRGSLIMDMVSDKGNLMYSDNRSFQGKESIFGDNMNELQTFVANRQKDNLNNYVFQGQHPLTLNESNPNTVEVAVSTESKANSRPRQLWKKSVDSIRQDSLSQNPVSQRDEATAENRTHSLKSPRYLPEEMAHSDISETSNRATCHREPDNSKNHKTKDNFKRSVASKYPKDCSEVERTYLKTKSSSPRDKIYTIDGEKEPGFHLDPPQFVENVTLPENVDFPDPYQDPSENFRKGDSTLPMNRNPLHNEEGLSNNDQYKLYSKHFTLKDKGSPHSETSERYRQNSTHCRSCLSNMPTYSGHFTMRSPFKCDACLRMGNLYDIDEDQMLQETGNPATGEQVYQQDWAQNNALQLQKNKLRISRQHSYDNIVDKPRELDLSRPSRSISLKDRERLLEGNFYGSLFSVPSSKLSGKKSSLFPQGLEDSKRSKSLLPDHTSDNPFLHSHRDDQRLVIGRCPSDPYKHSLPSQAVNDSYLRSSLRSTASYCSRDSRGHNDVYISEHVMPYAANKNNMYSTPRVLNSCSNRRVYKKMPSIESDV

Row | Compound | NMDAR2C A: % maximal [3H]MK-801 binding relative to 1 mM glycine (NMDAR2C) | EC50 (NMDAR2C) [nM] | CI (IV pharmacokinetics) [mL/min/kg] | EC50 (NMDAR2A) [nM] | NMDAR2D: % maximal [3H]MK-801 binding relative to 1 mM glycine (NMDAR2D) | Significance vs. vehicle (rats [1]; [3]) | Significance vs. vehicle (rats [1]; [4]) | also measured
1 | COc1ccc(CN2C[C@@]3(CCNC(=O)C3)C2=O)cc1 [Compound AA-2, 2-(4-methoxybenzyl)-2,7-diazaspiro[3.5]nonane-1,6-dione] | − (−=0) | > 100 | 9.82 | > 100 | + (<100%=+) | Yes | Yes | –
2 | CNCCC(Oc1ccc(C(F)(F)F)cc1)c1ccccc1 (centres unmarked) [Fluoxetine, fluoxetine, reference compound] | – | – | – | – | – | – | – | Significance vs. vehicle (rats [1]; 1 h post-dose, 20 mg/kg, dosed 3 times (24 h, 5 h and 1 h) prior to testing, positive control): Yes
3 | COc1ccc(CN2C[C@]3(CCNC(=O)C3)C2=O)cc1 [AA-1, 2-(4-methoxybenzyl)-2,7-diazaspiro[3.5]nonane-1,6-dione] | − (−=0) | > 100 | 9.69 | > 100 | + (<100%=+) | Yes | Yes | –
4 | NCC1(CC(=O)O)CCCCC1 [gabapentin] | – | – | – | – | – | – | – | % analgesia, control group of the study (rats [2]; 1 week post-administration): under 5%; % analgesia, example (typical) control values (rats [2]; 1 wk): 0%; % analgesia, example (typical) control values (rats [2]; 1 h): 72%; % analgesia, control group of the study (rats [2]; 1 h post-administration): at least 50%; % analgesia, example (typical) control values (rats [2]; 24 h): 16%; % analgesia, control group of the study (rats [2]; 24 h post-administration): under 5%
5 | C[C@@H](O)[C@@H](C(=O)N(C)C)N1CC2(CCNC(=O)C2)C1=O (single isomer, unassigned) [CC] | – | – | 15.65 | > 100 | – | – | – | Emax (NMDAR2A; read-out: NMDAR2A: % maximal [3H]MK-801 binding relative to 1 mM glycine): 0%
6 | CCN1CCC2(CC1=O)CN(Cc1ccc(OC)cc1)C2=O (single isomer, unassigned) [CL, 7-ethyl-2-(4-methoxybenzyl)-2,7-diazaspiro[3.5]nonane-1,6-dione] | – | – | 41.73 | – | – | – | – | NMDAR2A: % maximal [3H]MK-801 binding relative to 1 mM glycine (NMDAR2A): + (<100%=+); NMDAR2B: % maximal [3H]MK-801 binding relative to 1 mM glycine (NMDAR2B): + (<100%=+)
7 | COc1ccc(CN2CC3(CCN(C)C(=O)C3)C2=O)cc1 (single isomer, unassigned) [CI, 2-(4-methoxybenzyl)-7-methyl-2,7-diazaspiro[3.5]nonane-1,6-dione] | – | – | 32 | – | – | – | – | –
8 | COc1ccc(CN2CC3(CCNC(=O)C3)C2=O)cc1 (racemic) [AA-rac, 2-(4-methoxybenzyl)-2,7-diazaspiro[3.5]nonane-1,6-dione] | − (−=0) | > 100 | 5.28 | > 100 | + (<100%=+) | Yes | Yes | –
9 | C[C@@H](O)[C@@H](C(=O)NCc1ccccc1)N1CC2(CCNC(=O)C2)C1=O (single isomer, unassigned) [CB] | – | – | 25.31 | – | – | – | – | NMDAR2A: % maximal [3H]MK-801 binding relative to 1 mM glycine (NMDAR2A): − (−=0); NMDAR2B: % maximal [3H]MK-801 binding relative to 1 mM glycine (NMDAR2B): + (<100%=+)
